The results in this text go back to ChEMBL document CHEMBL1134247, “Glycosidase inhibition by cyclic sulfonium compounds” (Bioorg Med Chem Lett, 2001).

Experiment [1] has as its system alpha-galactosidase (Coffea arabica). In words: Inhibitory effect towards Alpha-galactosidase at a concentration of 2 mM from coffee beans; no inhibitory effect.
The nature of experiment [2]: Inhibitory concentration of compound against Alpha-glucosidase from rice.
The next experiment addresses Beta-galactosidase (Escherichia coli, UniProt Q8VNN2). The experiment can be described thus: Inhibitory effect towards Beta-galactosidase at a concentration of 2 mM from E. coli; no inhibitory effect.
The nature of experiment [3]: Inhibitory concentration of compound against Alpha-glucosidase from Baker's yeast; not active at less than 50% inhibition. Also noted: species or system Saccharomyces cerevisiae.
Experiment [4] in a line: Inhibitory concentration of compound (4:6 ratio of 10a/10b) against Alpha-glucosidase from Bacillus stearothermophilus. Also noted: species or system Geobacillus stearothermophilus.
Experiment [5] can be described thus: Inhibitory concentration of compound (4:6 ratio of 10a/10b) against Alpha-glucosidase from recombinant Saccharomyces cerevisiae.
Experiment [6] is described as follows: Inhibitory concentration of compound (10:1 ratio of 10a/10b) against Alpha-mannosidase of Almond. Also noted: species or system Prunus dulcis.
Experiment [7] is described as follows: Inhibitory concentration of compound (4:6 ratio of 10a/10b) against Alpha-glucosidase from Baker's yeast. Also noted: species or system Saccharomyces cerevisiae.
Experiment [8] relates to beta-glucosidase (Prunus dulcis). The experiment can be described thus: Inhibitory concentration of compound (4:6 ratio of 10a/10b) against Beta-Glucosidase from Almond; not active.
Experiment [9] is described as follows: Inhibitory concentration of compound (10:1 ratio of 10a/10b) against Alpha-glucosidase from Baker's yeast. Also noted: species or system Saccharomyces cerevisiae.
Experiment [10] can be described thus: Inhibitory concentration of compound (10:1 ratio of 10a/10b) against Alpha-glucosidase from recombinant Saccharomyces cerevisiae.
Experiment [11] concerns beta-glucosidase (Prunus dulcis). In words: Inhibitory concentration of compound (10:1 ratio of 10a/10b) against Beta-glucosidase from Almond; not active.
A short description of experiment [12]: Inhibitory concentration of compound (10:1 ratio of 10a/10b) against Alpha-glucosidase from Bacillus stearothermophilus. Also noted: species or system Geobacillus stearothermophilus.
Experiment [13] is described as follows: Inhibitory concentration of compound (4:6 ratio of 10a/10b) against Alpha-mannosidase of Almond. Also noted: species or system Prunus dulcis.
A short description of experiment [14]: Inhibitory concentration of compound (4:6 ratio of 10a/10b) against Alpha-glucosidase from rice.
Experiment [15] can be described thus: Inhibitory concentration of compound (10:1 ratio of 10a/10b) against Alpha-glucosidase from rice.
The nature of experiment [16]: Inhibitory concentration of compound against Alpha-glucosidase in Baker's yeast; not active at less than 50% inhibition. Also noted: species or system Saccharomyces cerevisiae.
Another experiment deals with Prunus dulcis. In words: (§1) Inhibitory concentration of compound against Alpha-mannosidase of Almond.
The nature of experiment [17]: Inhibitory concentration of compound against Alpha-glucosidase in Bacillus stearothermophilus. Also noted: species or system Geobacillus stearothermophilus.
Experiment [18] is described as follows: Inhibitory concentration of compound against Alpha-glucosidase in rice.
A short description of experiment [19]: Inhibitory concentration of compound against Alpha-glucosidase in recombinant S. cerevisiae; not active. Also noted: species or system Saccharomyces cerevisiae.
A short description of experiment [20]: Inhibitory concentration of compound against Alpha-glucosidase from recombinant S. cerevisiae; not active at less than 50% inhibition. Also noted: species or system Saccharomyces cerevisiae.
A short description of experiment [21]: Inhibitory concentration of compound against Alpha-glucosidase from B. stearothermophilus; not active at less than 50% inhibition. Also noted: species or system Geobacillus stearothermophilus.
The nature of experiment [22]: as §1. Also noted: species or system Prunus dulcis.
A short description of experiment [23]: Inhibitory concentration of compound against Alpha-glucosidase from rice; not active at less than 50% inhibition.
Experiment [24] can be described thus: Inhibitory concentration of compound against Alpha-mannosidase of Almond; not active. Also noted: species or system Prunus dulcis.
Experiment [25] concerns beta-glucosidase (Prunus dulcis). The experiment can be described thus: Inhibitory concentration of compound against Beta-glucosidase from Almond;not active.

Molecules are shown by their SMILES.

Beta-galactosidase, sequence (Q8VNN2 whole entry): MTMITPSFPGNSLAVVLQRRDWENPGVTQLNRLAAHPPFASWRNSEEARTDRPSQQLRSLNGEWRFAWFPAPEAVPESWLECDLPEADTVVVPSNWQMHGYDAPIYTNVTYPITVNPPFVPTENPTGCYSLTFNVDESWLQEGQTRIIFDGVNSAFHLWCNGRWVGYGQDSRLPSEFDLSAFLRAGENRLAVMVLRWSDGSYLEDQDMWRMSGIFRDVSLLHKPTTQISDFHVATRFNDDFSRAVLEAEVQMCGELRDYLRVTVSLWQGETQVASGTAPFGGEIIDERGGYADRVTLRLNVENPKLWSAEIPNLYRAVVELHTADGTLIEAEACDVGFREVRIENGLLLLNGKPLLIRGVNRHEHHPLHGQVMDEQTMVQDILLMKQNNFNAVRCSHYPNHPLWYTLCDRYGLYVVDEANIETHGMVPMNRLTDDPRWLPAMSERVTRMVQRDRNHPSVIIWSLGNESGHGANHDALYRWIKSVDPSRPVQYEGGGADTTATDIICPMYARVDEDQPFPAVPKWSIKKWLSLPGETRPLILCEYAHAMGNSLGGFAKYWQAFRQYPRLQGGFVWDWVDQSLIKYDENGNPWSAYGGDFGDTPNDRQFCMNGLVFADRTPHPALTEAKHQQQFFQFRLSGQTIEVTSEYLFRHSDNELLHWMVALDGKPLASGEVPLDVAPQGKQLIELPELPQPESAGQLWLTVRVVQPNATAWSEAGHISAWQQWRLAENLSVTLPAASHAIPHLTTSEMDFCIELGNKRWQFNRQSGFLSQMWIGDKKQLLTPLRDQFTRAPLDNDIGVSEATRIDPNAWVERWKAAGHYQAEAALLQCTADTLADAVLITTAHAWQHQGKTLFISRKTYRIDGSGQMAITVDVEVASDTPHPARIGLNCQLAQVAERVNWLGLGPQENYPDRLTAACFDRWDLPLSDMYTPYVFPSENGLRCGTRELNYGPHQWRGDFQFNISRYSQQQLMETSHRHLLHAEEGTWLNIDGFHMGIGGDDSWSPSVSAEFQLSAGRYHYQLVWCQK

`O=S(=O)([O-])O[C@H](CO)[C@@H](O)C[S+]1CCCC1`: the half-inhibitory concentration (IC50) (as a rule, the midpoint of a concentration-inhibition curve) is “No effect” in experiment [1], 1000 µM in experiment [2], “No effect” on Beta-galactosidase and “Not Active” in [3].
`C[S+]1C[C@@H](O)[C@H](O)[C@H]1CO.[I-]` (stereo partly specified): the concentration for half-maximal inhibition (IC50) was 1400 µM in experiment [4]; 2100 µM in [5]; 2100 µM in experiment [6]; 2200 µM in [7]; “Not Active” in experiment [8]; 360 µM in experiment [9]. Also, the half-inhibitory concentration (IC50) in experiment [10] was 490 µM; in experiment [11], “Not Active”; in experiment [12] it was 250 µM; in [13], 1200 µM; in experiment [14], 2000 µM; in experiment [15] it was 410 µM.
With `O=S(=O)([O-])O[C@@H](CO)[C@H](O)C[S@+]1C[C@@H](O)[C@H](O)[C@@H]1CO`, the 50% inhibitory concentration (IC50) entry in experiment [16] was “Not Active”; in experiment [17], 2500 µM; in experiment [18], 110 µM; in [19] it was “Not Active”. Moreover, the IC40 in the experiment on Prunus dulcis was 2100 µM.
As to `O=S(=O)([O-])O[C@H](CO)[C@@H](O)C[S@+]1C[C@@H](O)[C@H](O)[C@@H]1CO`, the IC50 entry is “Not Active” in experiment [20]; 380 µM in experiment [2]; “No effect” at Beta-galactosidase; “Not Active” in experiment [21]; “Not Active” in experiment [3]; 3600 µM in experiment [22].
`O=S(=O)([O-])O[C@@H](CO)[C@H](O)C[S+]1CCCC1`: the concentration for half-maximal inhibition (IC50) result in experiment [23], in [24], in [25] and in experiment [3] was “Not Active” throughout.
